# Results published in patent publication US12685735B2 (Foghorn Therapeutics Inc., priority 2020, dated 2026).
# Experiments:
# BRG-1 = BRG-1 (Homo sapiens, UniProt P51532); test: ATPase catalytic activity assay of BRG-1 (ADP-Glo); format: biochemical; details: ATPase catalytic activity, ADP-Glo; for IC50: read-out: BRG1 IC50 (μM)*; for Emax: read-out: BRG1 Max % Inhibition
# Summary of the method: (§1)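 In vitro biochemical ATPase assay; product ADP detected after removing leftover ATP and reconverting ADP to ATP for a luciferase signal.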
# BRM = BRM (Homo sapiens, UniProt P51531); test: ATPase catalytic activity assay of BRM (ADP-Glo); format: biochemical; details: for IC50: read-out: BRM IC50 (μM)*
# Summary of the method: as §1
# Sequence of BRM (P51531 whole entry): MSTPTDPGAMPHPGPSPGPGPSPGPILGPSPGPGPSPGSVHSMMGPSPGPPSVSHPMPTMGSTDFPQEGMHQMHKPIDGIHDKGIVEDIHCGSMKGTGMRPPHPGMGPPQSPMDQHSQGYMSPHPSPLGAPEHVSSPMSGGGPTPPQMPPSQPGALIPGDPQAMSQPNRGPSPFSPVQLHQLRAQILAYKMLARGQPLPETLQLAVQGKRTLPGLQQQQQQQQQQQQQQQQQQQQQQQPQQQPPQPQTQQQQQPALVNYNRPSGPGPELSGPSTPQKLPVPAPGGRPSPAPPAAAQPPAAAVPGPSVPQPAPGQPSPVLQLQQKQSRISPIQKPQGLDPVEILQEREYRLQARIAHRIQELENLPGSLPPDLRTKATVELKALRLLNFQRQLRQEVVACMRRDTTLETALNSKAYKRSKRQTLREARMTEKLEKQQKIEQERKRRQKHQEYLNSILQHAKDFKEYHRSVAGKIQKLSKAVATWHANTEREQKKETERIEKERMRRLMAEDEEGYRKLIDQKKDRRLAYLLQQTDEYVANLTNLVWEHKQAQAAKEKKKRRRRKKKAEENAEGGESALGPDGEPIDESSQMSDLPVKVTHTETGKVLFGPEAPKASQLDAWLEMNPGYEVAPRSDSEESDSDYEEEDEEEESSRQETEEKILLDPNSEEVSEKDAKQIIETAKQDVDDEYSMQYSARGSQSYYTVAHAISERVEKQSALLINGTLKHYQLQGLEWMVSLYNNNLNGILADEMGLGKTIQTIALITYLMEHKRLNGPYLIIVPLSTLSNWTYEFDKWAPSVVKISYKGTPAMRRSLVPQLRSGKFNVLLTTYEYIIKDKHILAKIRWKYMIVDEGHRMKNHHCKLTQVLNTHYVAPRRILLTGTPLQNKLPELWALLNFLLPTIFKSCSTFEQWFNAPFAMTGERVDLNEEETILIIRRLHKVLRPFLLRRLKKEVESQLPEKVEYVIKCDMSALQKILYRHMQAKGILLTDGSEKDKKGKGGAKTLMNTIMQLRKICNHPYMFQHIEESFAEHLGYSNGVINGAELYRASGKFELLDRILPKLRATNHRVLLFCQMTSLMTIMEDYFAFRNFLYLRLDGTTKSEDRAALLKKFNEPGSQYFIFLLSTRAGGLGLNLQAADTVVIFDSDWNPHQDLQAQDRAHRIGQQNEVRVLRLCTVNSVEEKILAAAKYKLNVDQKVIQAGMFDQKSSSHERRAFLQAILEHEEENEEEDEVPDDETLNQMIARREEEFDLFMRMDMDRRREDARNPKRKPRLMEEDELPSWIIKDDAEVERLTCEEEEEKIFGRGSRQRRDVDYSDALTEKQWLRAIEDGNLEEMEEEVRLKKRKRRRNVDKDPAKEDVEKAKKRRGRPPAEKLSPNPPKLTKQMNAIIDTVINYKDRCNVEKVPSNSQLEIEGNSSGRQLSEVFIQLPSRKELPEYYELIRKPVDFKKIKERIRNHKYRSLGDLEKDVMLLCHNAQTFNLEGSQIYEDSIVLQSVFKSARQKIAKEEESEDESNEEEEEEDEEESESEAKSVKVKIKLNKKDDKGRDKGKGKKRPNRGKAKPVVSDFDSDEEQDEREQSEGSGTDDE
# Sequence of BRG-1 (P51532 whole entry): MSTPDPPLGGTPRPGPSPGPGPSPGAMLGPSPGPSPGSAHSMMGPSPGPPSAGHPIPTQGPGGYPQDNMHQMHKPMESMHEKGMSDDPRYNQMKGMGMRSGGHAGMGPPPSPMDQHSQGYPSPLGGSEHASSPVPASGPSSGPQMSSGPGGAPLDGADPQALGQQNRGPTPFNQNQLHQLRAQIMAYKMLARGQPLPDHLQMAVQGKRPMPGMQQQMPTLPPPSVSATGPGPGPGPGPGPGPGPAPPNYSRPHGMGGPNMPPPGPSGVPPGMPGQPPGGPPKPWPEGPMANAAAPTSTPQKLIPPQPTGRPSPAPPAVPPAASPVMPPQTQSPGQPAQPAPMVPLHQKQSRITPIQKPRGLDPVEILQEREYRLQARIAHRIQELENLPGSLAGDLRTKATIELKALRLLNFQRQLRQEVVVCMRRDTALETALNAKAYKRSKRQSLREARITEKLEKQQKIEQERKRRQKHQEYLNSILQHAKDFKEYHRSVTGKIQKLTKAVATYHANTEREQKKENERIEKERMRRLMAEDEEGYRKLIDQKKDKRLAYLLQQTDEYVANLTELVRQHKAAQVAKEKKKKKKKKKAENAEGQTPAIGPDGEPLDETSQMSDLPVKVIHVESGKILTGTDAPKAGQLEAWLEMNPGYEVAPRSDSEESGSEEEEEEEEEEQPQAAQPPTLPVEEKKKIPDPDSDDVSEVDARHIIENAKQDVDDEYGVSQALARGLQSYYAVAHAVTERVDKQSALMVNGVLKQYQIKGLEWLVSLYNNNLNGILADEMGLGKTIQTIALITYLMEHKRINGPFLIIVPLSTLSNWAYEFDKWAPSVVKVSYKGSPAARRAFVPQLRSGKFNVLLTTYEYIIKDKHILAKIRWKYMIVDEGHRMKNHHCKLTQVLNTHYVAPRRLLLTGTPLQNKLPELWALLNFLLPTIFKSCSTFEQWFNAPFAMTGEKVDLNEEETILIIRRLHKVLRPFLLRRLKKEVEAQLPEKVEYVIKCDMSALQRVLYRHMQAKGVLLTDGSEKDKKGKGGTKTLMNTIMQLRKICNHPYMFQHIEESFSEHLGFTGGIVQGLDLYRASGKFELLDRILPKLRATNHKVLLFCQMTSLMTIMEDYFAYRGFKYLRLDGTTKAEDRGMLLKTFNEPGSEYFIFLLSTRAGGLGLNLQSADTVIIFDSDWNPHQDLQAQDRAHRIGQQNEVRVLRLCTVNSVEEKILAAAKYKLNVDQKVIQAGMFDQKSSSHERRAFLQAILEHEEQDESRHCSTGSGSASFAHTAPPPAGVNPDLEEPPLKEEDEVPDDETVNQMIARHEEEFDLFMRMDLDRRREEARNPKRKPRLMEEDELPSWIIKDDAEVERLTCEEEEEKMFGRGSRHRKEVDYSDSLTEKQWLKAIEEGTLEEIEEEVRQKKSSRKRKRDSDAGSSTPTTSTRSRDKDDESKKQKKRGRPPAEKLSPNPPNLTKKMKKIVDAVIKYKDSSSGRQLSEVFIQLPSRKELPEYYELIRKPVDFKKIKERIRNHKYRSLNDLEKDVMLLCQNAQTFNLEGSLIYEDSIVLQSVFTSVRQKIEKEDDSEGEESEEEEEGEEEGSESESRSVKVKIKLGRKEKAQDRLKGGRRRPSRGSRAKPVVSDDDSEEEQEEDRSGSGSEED
IC50 (BRG-1) [µM],Emax (BRG-1) [%],BRM Max % Inhibition (BRM) [%],IC50 (BRM) [µM],BRG1 Max % Inhibition (BRG-1) [%],Compound
0.1 to 1,> 80,>95,< 0.1,–,"CC1(CO)CCc2ccc(C(=O)NCC(=O)Nc3nc(-c4cccc(-c5cccc(C#N)c5)c4)cs3)cc21 (stereo not shown) [Compound 233, N-[2-[[4-[3-(3-cyanophenyl)phenyl]thiazol-2-yl]amino]-2-oxo-ethyl]-3-(hydroxymethyl)-3-methyl-indane-5-carboxamide]"
0.1 to 1,> 90,>95,< 0.1,–,"Cc1ccc(C(=O)NCC(=O)Nc2nc(-c3cccc(N4C[C@@H](C)O[C@@H](C)C4)n3)cs2)cc1C(C)(C)CO [Compound 237, N-(2-((4-(6-((cis)-2,6-dimethylmorpholino)pyridin-2-yl)thiazol-2-yl)amino)-2-oxoethyl)-3-(1-hydroxy-2-methylpropan-2-yl)-4-methylbenzamide]"
0.1 to 1,> 90,>95,< 0.1,–,"Cc1ccc(C(=O)NCC(=O)Nc2nc(-c3cccc(N4C[C@@H](C)O[C@@H](C)C4)c3)cs2)cc1C(C)(C)CO [Compound 238, N-(2-((4-(3-((cis)-2,6-dimethylmorpholino)phenyl)thiazol-2-yl)amino)-2-oxoethyl)-3-(1-hydroxy-2-methylpropan-2-yl)-4-methylbenzamide]"
0.1 to 1,> 90,>95,< 0.1,–,"C[C@@H]1CN(c2cccc(-c3csc(NC(=O)CNC(=O)c4ccc(Cl)c(C(C)(C)CO)c4)n3)n2)C[C@H](C)O1 [Compound 241, 4-chloro-N-[2-[[4-[6-[(cis)-2,6-dimethylmorpholin-4-yl]-2-pyridyl]thiazol-2-yl]amino]-2-oxo-ethyl]-3-(2-hydroxy-1,1-dimethyl-ethyl)benzamide]"
1 to 5,> 50,>80,0.1 to 1,–,"CCC(C)(CO)c1cccc(C(=O)NCC(=O)Nc2nc(-c3cccc(-c4ccncc4)c3)cs2)c1 (stereo not shown) [Compound 242, 3-[1-(hydroxymethyl)-1-methyl-propyl]-N-[2-oxo-2-[[4-[3-(4-pyridyl)phenyl]thiazol-2-yl]amino]ethyl]benzamide]"
1 to 5,> 50,>80,0.1 to 1,–,"C[C@]1(CN)CCc2c(C(=O)NCC(=O)Nc3nc(-c4cccc(-c5ccncc5)c4)cs3)cccc21 [Compound 243, (1S)-1-(aminomethyl)-1-methyl-N-[2-oxo-2-[[4-[3-(4-pyridyl)phenyl]thiazol-2-yl]amino]ethyl]indane-4-carboxamide]"
0.1 to 1,> 95,>95,< 0.1,–,"C[C@@H]1CN(c2cccc(-c3csc(NC(=O)CNC(=O)c4ccc(Cl)c(C(C)(C)CO)c4)n3)c2)C[C@H](C)O1 [Compound 244, 4-chloro-N-[2-[[4-[3-[(cis)-2,6-dimethylmorpholin-4-yl]phenyl]thiazol-2-yl]amino]-2-oxo-ethyl]-3-(2-hydroxy-1,1-dimethyl-ethyl)benzamide]"
1 to 5,> 70,>95,< 0.1,–,"Cc1cc(-c2cccc(-c3csc(NC(=O)CNC(=O)c4cc(C)c(C)c(C(C)(C)CN)c4)n3)c2)cc(C)n1 [Compound 245, 3-(2-amino-1,1-dimethyl-ethyl)-N-[2-[[4-[3-(2,6-dimethyl-4-pyridyl)phenyl]thiazol-2-yl]amino]-2-oxo-ethyl]-4,5-dimethyl-benzamide]"
0.1 to 1,> 80,>95,0.1 to 1,–,"CC(C)(CO)c1cccc(C(=O)NCC(=O)Nc2nc(-c3cccc(N4CCC(O)CC4)c3)cs2)c1 [Compound 247, 3-(2-hydroxy-1,1-dimethyl-ethyl)-N-[2-[[4-[3-(4-hydroxy-1-piperidyl)phenyl]thiazol-2-yl]amino]-2-oxo-ethyl]benzamide]"
< 0.1,> 95,>95,< 0.1,–,"Cc1nccc(-c2cccc(-c3csc(NC(=O)CNC(=O)c4ccc5c(c4)[C@](C)(C#N)CC5)n3)n2)n1 [Compound 249, (3R)-3-cyano-3-methyl-N-[2-[[4-[6-(2-methylpyrimidin-4-yl)-2-pyridyl]thiazol-2-yl]amino]-2-oxo-ethyl]indane-5-carboxamide]"
> 5,> 50,>70,1 to 5,–,"CC1(C)c2cc(C(=O)NCC(=O)Nc3nc(-c4cccc(-c5ccncc5)c4)cs3)ccc2C[C@@H]1N [Compound 250, (S)-2-amino-3,3-dimethyl-N-(2-oxo-2-((4-(3-(pyridin-4-yl)phenyl)thiazol-2-yl)amino)ethyl)-2,3-dihydro-1H-indene-5-carboxamide]"
> 5,< 30,>50,1 to 5,–,"Cc1cc(-c2cccc(-c3csc(NC(=O)CNC(=O)c4ccc5c(c4)[C@@](C)(CN)CCC5)n3)c2)cc(C)n1 [Compound 251, (4S)-4-(aminomethyl)-N-[2-[[4-[3-(2,6-dimethyl-4-pyridyl)phenyl]thiazol-2-yl]amino]-2-oxo-ethyl]-4-methyl-tetralin-6-carboxamide]"
> 5,> 30,>60,1 to 5,–,"C[C@@H]1CN(c2cccc(-c3csc(NC(=O)CNC(=O)c4cccc5c4OCC[C@]5(C)CO)n3)c2)C[C@H](C)O1 [Compound 252, (S)-N-(2-((4-(3-((cis)-2,6-dimethylmorpholino)phenyl)thiazol-2-yl)amino)-2-oxoethyl)-4-(hydroxymethyl)-4-methylchroman-8-carboxamide]"
1 to 5,> 50,>90,1 to 5,–,"C[C@@H]1CN(c2cccc(-c3csc(NC(=O)CNC(=O)c4cnc5c(c4)[C@@](C)(C#N)CC5)n3)c2)C[C@H](C)O1 [Compound 253, (S)-5-cyano-N-(2-((4-(3-((cis)-2,6-dimethylmorpholino)phenyl)thiazol-2-yl)amino)-2-oxoethyl)-5-methyl-6,7-dihydro-5H-cyclopenta[b]pyridine-3-carboxamide]"
< 0.1,> 95,>95,< 0.1,–,"C[C@@H]1CN(c2cccc(-c3csc(NC(=O)CNC(=O)c4ccc5c(c4)[C@](C)(C#N)COC5)n3)c2)C[C@H](C)O1 [Compound 254, (R)-4-cyano-N-(2-((4-(3-((cis)-2,6-dimethylmorpholino)phenyl)thiazol-2-yl)amino)-2-oxoethyl)-4-methylisochroman-6-carboxamide]"
> 5,> 40,>70,1 to 5,–,"C[C@@H]1CN(c2cccc(-c3csc(NC(=O)CNC(=O)c4ccc5c(c4)[C@@](C)(C#N)CCO5)n3)c2)C[C@H](C)O1 [Compound 255, (4S)-4-cyano-N-[2-[[4-[3-[(cis)-2,6-dimethylmorpholin-4-yl]phenyl]thiazol-2-yl]amino]-2-oxo-ethyl]-4-methyl-chromane-6-carboxamide]"
> 5,< 30,>60,1 to 5,–,"C[C@@H]1CN(c2cccc(-c3csc(NC(=O)CNC(=O)c4ccc5c(c4)[C@]4(CCC[C@H]4O)CC5)n3)c2)C[C@H](C)O1 [Compound 256, (1S,2R)-N-(2-((4-(3-((cis)-2,6-dimethylmorpholino)phenyl)thiazol-2-yl)amino)-2-oxoethyl)-2-hydroxy-2′,3′-dihydrospiro[cyclopentane-1,1′-indene]-6′-carboxamide]"
> 5,> 30,>70,1 to 5,–,"Cn1cnc2ccc(-c3csc(NC(=O)CNC(=O)c4ccc5c(c4)[C@@](C)(CO)CC5)n3)cc21 [Compound 257, (S)-3-(hydroxymethyl)-3-methyl-N-(2-((4-(1-methyl-1H-benzo[d]imidazol-6-yl)thiazol-2-yl)amino)-2-oxoethyl)-2,3-dihydro-1H-indene-5-carboxamide]"
1 to 5,–,>80,0.1 to 1,>60,"CN1CCc2ccc(-c3csc(NC(=O)CNC(=O)c4ccc5c(c4)[C@@](C)(CO)CC5)n3)cc2C1=O [Compound 258, (S)-3-(hydroxymethyl)-3-methyl-N-(2-((4-(2-methyl-1-oxo-1,2,3,4-tetrahydroisoquinolin-7-yl)thiazol-2-yl)amino)-2-oxoethyl)-2,3-dihydro-1H-indene-5-carboxamide]"
> 5,–,>50,1 to 5,<30,"C[C@]1(CO)CCc2ccc(C(=O)NCC(=O)Nc3nc(-c4ccn5ccnc5c4)cs3)cc21 [Compound 259, (S)-3-(hydroxymethyl)-N-(2-((4-(imidazo[1,2-a]pyridin-7-yl)thiazol-2-yl)amino)-2-oxoethyl)-3-methyl-2,3-dihydro-1H-indene-5-carboxamide]"
> 5,> 30,>60,1 to 5,–,"CN1C(=O)CCc2ccc(-c3csc(NC(=O)CNC(=O)c4ccc5c(c4)[C@@](C)(CO)CC5)n3)cc21 [Compound 260, (S)-3-(hydroxymethyl)-3-methyl-N-(2-((4-(1-methyl-2-oxo-1,2,3,4-tetrahydroquinolin-7-yl)thiazol-2-yl)amino)-2-oxoethyl)-2,3-dihydro-1H-indene-5-carboxamide]"

Compound,IC50 (BRG-1) [µM],Emax (BRG-1) [%],BRM Max % Inhibition (BRM) [%],IC50 (BRM) [µM],BRG1 Max % Inhibition (BRG-1) [%]
"C[Si](C)(C)c1cccc(C(=O)NCC(=O)Nc2nc(-c3cccc(-c4ccncc4)c3)cs2)c1 [Compound 248, N-[2-oxo-2-[[4-[3-(4-pyridyl)phenyl]thiazol-2-yl]amino]ethyl]-3-trimethylsilyl-benzamide]",1 to 5,> 30,>40,0.1 to 1,–
